Test results as given in US6939850B2, “Altered human interleukin-1β convertase (ICE), NEDD-2, and C. elegans ced-3 polypeptides and uses therefor” (Massachusetts Institute of Technology, priority 1992, dated 2005).

System: lumbar motoneurons
Assay: Naturally occurring lumbar motoneuron cell death in vivo
Set-up: species or system chick
Method: In the first model, embryos were treated with a single dose of an ICE inhibitor or control protease inhibitor on embryonic day 8 (E8), the time of maximum naturally occurring motoneuron cell death (Hamburger et al., J. Morph. 88:49-92 (1951)). Embryos treated in vivo with the peptide inhibitors appeared to develop normally and there were no gross abnormalties. […] 24 hours after treatment there is a similar reduction in the number of pyknotic cells and a significant increase in the number of healthy motoneurons (Table 6B). […] The ability of ICE inhibitors to block the naturally occurring cell death of interdigital cells in the developing limb was also studied. These cells undergo PCD as a means of sculpting the digits in many vertebrates. When embryos were treated with either ICE inhibitor on embryonic days, E6 and E7, there was a substantial reduction in the number of pyknotic cells between the digits of the hindlimb (FIG. 14).
Peptides. Two peptide inhibitors of ICE, Acetyl-Tyr-Val-Ala-Asp-aldehyde (Ac-YVAD-CHO) and Acetyl-Tyr-Val-Ala-Asp-chloromethylketone (Ac-YVAD-CMK) and two control peptide inhibitors, Acetyl-Leu-Leu-Arg-aldehyde (Ac-LLR-CHO; Leupeptin) and n-tosyl-Lys-chloromethyl-ketone (Tos-Lys-CMK) were synthesized by Bachem Biosciences (King of Prussia, Pa.) and shown by thin layer chromatography and HPLC to be greater than 98% pure. […] Methods for administration of peptides to examine effects on naturally occurring motoneuron cell death in vivo. Although cell death of lumbar motoneurons occurs between E6 and E12, the peak period of death (i.e., the greatest number of pyknotic cells) occurs on E8 (Oppenheim et al., J Comp. Neurol. 177:87-112 (1978)). For these experiments, embryos were given a single administration of an agent on E8 0 hr and sacrificed 15 hours later. […] Ac-YVAD-CMK and Tos-Lys-CMK were administered in a solution of DMSO/BSA, whereas Ac-YVAD-CHO and leupeptin (Sigma) were in BSA alone. The solutions (50-100 μl) were dropped onto the highly vascularized chorioallantoic membrane through a window in the shell. The control groups included both DMSO and BSA or vehicle alone. Embryos were killed and staged by the Hamburger-Hamilton series (Hamburger and Hamilton, J. Morph. 88:49-92 (1951)). The thoraco-lumbar spinal cord was dissected, fixed in Camoys or Bouins fixative, processed for paraffin histology, serially sectioned (10-12 μm) and stained with either thionin or hematoxylin and eosin. Pyknotic motoneurons were identified based on criteria previously described (Chu-Wang and Oppenheim, J. Comp. Neurol. 177:33-58 (1978); Clarke and Oppenheim In Methods in Cell Biology Series; Cell Death; eds: Schwartz and Osborne. Academic Press. New York, N.Y. In press.) and were counted in every 10th or 20th section through the entire lumbar enlargement. The total number of pyknotic cells were then estimated by multiplying these values by 10 or 20. All cell counts were performed by individuals blinded with regard to drug treatment of the embryos. Methods for limb bud removal experiments. A unilateral limb bud removal was performed on E2 as described previously (Oppenheim et al., J. Comp. Neurol. 177:87-112 (1978)). Because induced cell death following limb removal begins on E5 (before that there is no difference in the number of motoneurons between the operated or unoperated sides) embryos were given one treatment of Ac-YVAD-CHO (40 μg) or BSA (control) at E5-0 hr and another at E5-12 hours (total peptide administered was 80 μg). Animals were killed at E6-0 hr. Methods were the same as described above except the section thickness was 6-8 μm (see Method for Administration of Peptides, above). Methods for limb bud interdigital regions. […]

[1] = 24 hours post treatment, mean ±SD

Acetyl-Tyr-Val-Ala-Asp-aldehyde [Ac-YVAD-CHO]
Pyknotic Lumbar Motoneurons on E8 (15 hours post treatment, single administration of 400 μg on E8, mean ±SD): 146 ± 35
Healthy Motoneurons (lumbar) on E9 [1]: 15,680 ± 684
Pyknotic Motoneurons (lumbar) on E9 [1]: 150 ± 30
effectiveness for inhibition of motoneuron PCD in vivo (FIG. 13): dose dependent
